This is an account of results in US20110003012A1, “TREATING PATIENTS WITH SUBARACHNOID HEMORRHAGE” (Duke University, priority 2007, published 2011).

Where two headings read alike, the source gives them in different places. A value given as a limit tells only on which side of the number the result lay.

In one data set the test system is hemoglobin. Description: S-nitrosylation of hemoglobin / blood NO after 3 days exposure to ENO (FIG. 5). The format is in vivo. The settings on record: 3 days exposure to 20 ppm ENO.
For data set [1], the system named is subarachnoid hemorrhage. Description: Laser Doppler blood flow in MCA territory and blood pressure 7 days after SAH (Background Example 3). Type of data set: in vivo. As to conditions: mice 7 days after SAH. Here is the method:
Mice were subjected to subarachnoid hemorrhage induced by filament perforation of the right middle cerebral artery (MCA). Mice were allowed to recover for 7 days. The mice were then anesthetized and a laser Doppler flow probe was positioned over the brain within the territory perfused by the MCA and blood pressure was recorded. The animals were allowed to stabilize for 30 minutes (time=1-30 min).

The subject of data set [2] is subarachnoid hemorrhage. The settings on record: human, in vivo.
Data set [3] in a line: Blood pressure with or without ENO inhalation in normal mice. The settings on record: inhalation of 20 ppm, n=5 each group.
Data set [4] concerns subarachnoid hemorrhage induced vasospasm. As to the kind of experiment: Intraluminal filament-induced SAH in mice, ENO inhalation for 3 days (Background Example 2).
For the next data set, the system named is vasospasm. The settings on record: cited from earlier work.
Where [5] appears, read: SAH mice, 20 ppm ENO inhalation 3 days, p<0.01.
[6] abbreviates: inhalation at 20 ppm for 3 days.

On to `CCON=O` [ENO, ethyl nitrite], for which, in the data set with hemoglobin (FIG. 5A), the “Red blood cell lysate nitrosothiol (SNO) increase” value is listed as “approximately 4 fold”. Besides, the “Total red blood cell NO” value with hemoglobin (FIG. 5B) was “increase”. Further, the “Change in serum total NO” value in the data set with hemoglobin (FIG. 5C) is recorded as “negligible”. The Mean arterial pressure result in the data set with subarachnoid hemorrhage [1] (20 ppm ENO added to inspiratory gas) is recorded as “remained unchanged”. For the same compound, the “Blood flow increase (laser Doppler, MCA territory)” value with subarachnoid hemorrhage [1] (onset of 20 ppm ENO) came out at 25%. In addition, in the data set on subarachnoid hemorrhage [2], the Cerebral infarction entry is reported as “prevented” and the Vasospasm result is “does not occur”. Further, in data set [3], the “Change in blood pressure” value is on record as “did not cause a change”. The Rotarod performance entry in data set [4] (3 days post-SAH, inhalation of 20 ppm, p=0.06) was “a trend for improvement”. In data set [4] (setting [5]), the “Arterial narrowing (large vessel spasm)” value is “improved” and the “Decreased forebrain ROD (small vessel spasm)” value is “improved”. Besides, in data set [4] (setting [6]), the “Subarachnoid hemorrhage induced vasospasm” value is “attenuated” and the Systemic hypotension result is given as “without causing systemic hypotension”. The “Effect in sham surgery mice” value in data set [4] (sham surgery, 20 ppm inhalation, n=5 each group, p=0.9) is recorded as “no effect”.
In the case of `CCCCON=O` [butyl nitrite], in the data set with subarachnoid hemorrhage [2] (iv), the Cerebral infarction entry was “prevented”, the “Mean arterial blood pressure reduction” value is at most 10% and the Vasospasm entry is given as “does not occur”.
`O=NO` [sodium nitrite]: in the data set with vasospasm (both regimens: low dose infusion plus bolus, or higher dose infusion without bolus), the “Vasospasm compared to control” value is reported as “reduced vasospasm”. For the same compound, the “Vasospasm reduced to” value in the data set with vasospasm (higher dose infusion, no bolus, two of three cases) is recorded as 20%. Also, in the data set on vasospasm (lower dose infusion over 24 hours plus bolus, after bolus), the “Transient blood pressure reduction” value is reported as “more than 15%”.
